Assays:
[1] = test system: patient-derived Pa03C tumors with CAFs; assay: Flank co-culture model of PDAC, APX3330 and Ruxolitinib; assay type: in vivo, mice
Protocol: Treatment of the implanted tumors started on day 11 post implant. Particularly, the co-cultures implanted included 2.5×10^6 tumor cells +/−5 ×10^6 CAFs, providing a 1:2 ratio of tumor cell to CAF. […] The mice were then administered either 50 mg/kg APX3330 BID in 4% Cr:EtOH, 50 mg/kg Rux SID pm in 4% Cr:EtOH, or combinations of the agents. Treatment schedule consisted of treating for 5 days and then giving 2 days off treatment until the tumors reached an average size of 2000 mm^3.

[2] = test system: 10.05 cells; assay: Intracellular pH assay (pHrodo Red AM) in hypoxic 10.05 cells; assay type: cell-based, human; conditions: 0.2% O2 48 hrs; up to 50 μM APX3330, 100 μM SLC-0111; 8 APX2009, 5 μM APX2014
Text: Therefore, the APX3330 analogs, APX2009 and APX2014, were used to determine whether APE1/Ref-1 redox inhibition alone can shift intracellular pH in hypoxic PDAC cells given a sufficiently potent inhibitor.

[3] = test system: Pa03C; assay: 3D tumor spheroid culture growth (fluorescence intensity)

## CCCCCCCCC/C(=C\C1=C(C)C(=O)C(OC)=C(OC)C1=O)C(=O)O [APX3330]
[1]; Ruxolitinib (Rux) in combination with APX3330
  tumor volume: reduction in tumor volume
[1]; combination therapy: 50 mg/kg APX3330 BID with 50 mg/kg Rux SID, day 31
  average tumor size: 1200 mm^3
[1]; treatment alone, 50 mg/kg, day 28
  average tumor size: 1750 mm³
[2]
  effect on intracellular pH as single agent: did not affect
[3]; Pa03C in co-culture with CAFs, APX3330 50 μM
  effect of gemcitabine with APX3330 on tumor: dose-dependent combination effect
[3]; read-out: LC50, 3D Cultures, Tumor Alone, Pa03C, D12 curves
  CC50: 37.9 µM
